Laboratory results taken from article PMC3794980, “Identification of Conserved and HLA Promiscuous DENV3 T-Cell Epitopes” (PLoS Neglected Tropical Diseases, 2013).
pIC50: −log10 of the molar value. Like-named read-outs stand apart in the source and are kept apart here. Where no end group is shown, it is not given here.

Columns and labels:
Test in all cases: biochemical
Assay type in all cases: binding
[1] = molecular target: DRB1*0101 (Homo sapiens, UniProt P01903+P01911, A100R/D57E/F55L/F60I/F76Y/I96L/L162R/M171V/P40L/Q125E/R42F/V115G/Y59C)
[2] = molecular target: DRB1*0301 (Homo sapiens, UniProt P01903+P01911, A100K/A102G/A103R/A169T/F55Y/I96L/K41T/L162R/M171V/P40S/Q125H/Q178H/Q39Y/R42S/S66N/T106N/T262R/W38E/Y61H)
[3] = molecular target: DRB1*0401 (Homo sapiens, UniProt P01903+P01911, A100K/A169T/F76Y/I96L/K127E/L162R/M171V/N62H/P40V/Q125Y/R42H/S133A/S149N/S66Y/V115G/V209L/W38E)
[4] = molecular target: DRB1*0404 (Homo sapiens, UniProt P01903+P01911, A100R/A169T/F76Y/I96L/K127E/L162R/M171V/N62H/P40V/Q125Y/R42H/S133A/S149N/S66Y/V209L/W38E)
[5] = molecular target: DRB1*0405 (Homo sapiens, UniProt P01903+P01911, A100R/A169T/D86S/F76Y/I96L/K127E/L162R/M171V/N62H/P40V/Q125Y/R42H/S133A/S149N/S66Y/V115G/V209L/W38E)
[6] = molecular target: DRB1*0701 (Homo sapiens, UniProt P01903+P01911, A100R/A102G/A103Q/D57E/D86V/E43K/F76Y/K127E/L162R/M171V/P40G/Q125H/Q99D/R33Q/R42Y/R54Q/S133A/S66F/T210M/V115G/Y107V/Y59L/Y89S)
[7] = molecular target: DRB1*0802 (Homo sapiens, UniProt P01903+P01911, A100R/A103L/A169T/F76Y/H45Y/I96F/K41T/L162R/M171V/P40S/Q125H/Q178H/Q39Y/Q99D/R218S/R42G/S66Y/V115G/W38E)
[8] = molecular target: DRB1*0901 (Homo sapiens, UniProt P01903+P01911, A100R/A103E/D57H/D86V/F55Y/F60I/F76Y/I96F/K127E/L162R/M171V/P40D/Q125H/Q99R/R33Q/R42F/S133A/S66N/T210M/V115G/W38K/Y107V/Y59G/Y89S); settings: competitive inhibition of radiolabeled standard peptide, read-out: Binding Affinity (nM) DRB1*0901
[9] = molecular target: DRB1*1101 (Homo sapiens, UniProt P01903+P01911, A100R/A169T/A87E/I96F/K41T/L162R/M171V/P40S/Q125H/Q178H/Q39Y/Q99D/R42S/S66Y/T262R/V115G/W38E)
[10] = molecular target: DRB1*1302 (Homo sapiens, UniProt P01903+P01911, A100E/A169T/K41T/L162R/M171V/P40S/Q125H/Q178H/Q39Y/Q99D/R42S/S66N/T262R/V115G/W38E/Y61H); settings: competitive inhibition of radiolabeled standard peptide, read-out: Binding Affinity (nM) DRB1*1302
[11] = molecular target: DRB1*1501 (Homo sapiens, UniProt P01903+P01911)
[12] = molecular target: DRB3*0101 (Homo sapiens, UniProt P01903+P79483)
[13] = molecular target: DRB4*0101 (Homo sapiens, UniProt P01903+P13762, G164S)
[14] = molecular target: DRB5*0101 (Homo sapiens, UniProt P01903+Q30154)

DRB1*1302, sequence (P01903 26-254 limits assumed, other chains not shown): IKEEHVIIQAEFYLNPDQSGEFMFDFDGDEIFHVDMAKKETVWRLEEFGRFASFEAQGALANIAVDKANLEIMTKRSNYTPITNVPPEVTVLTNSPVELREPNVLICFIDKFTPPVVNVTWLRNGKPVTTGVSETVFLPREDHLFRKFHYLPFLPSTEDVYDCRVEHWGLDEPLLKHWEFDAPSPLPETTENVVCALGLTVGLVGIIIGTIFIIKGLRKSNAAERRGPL
DRB1*1101, sequence (P01903 26-254, other chains not shown): as the sequence (P01903 26-254 limits assumed, other chains not shown) above
DRB1*0301, sequence (P01903 26-254, other chains not shown): as the sequence (P01903 26-254 limits assumed, other chains not shown) above

Compound | pIC50 [1] | pIC50 [2] | pIC50 [3] | pIC50 [4] | pIC50 [5] | pIC50 [6] | pIC50 [7] | IC50 ([8]; '-' distinct from ND) [nM] | pIC50 [9] | IC50 ([10]; '-' distinct from ND) [nM] | pIC50 [11] | pIC50 [12] | pIC50 [13] | pIC50 [14] | IC50 ([8]; DRB1*0901) [nM] | IC50 ([10]; DRB1*1302) [nM]
CC[C@H](C)[C@H](NC(=O)[C@H](CC(C)C)NC(=O)[C@H](CCCNC(=N)N)NC(=O)CNC(=O)[C@@H](N)CC(N)=O)C(=O)N[C@H](C(=O)N[C@@H](C)C(=O)N[C@@H](CC(N)=O)C(=O)N1CCC[C@H]1C(=O)N[C@H](C(=O)N[C@H](C(=O)N[C@H](C(=O)N[C@@H](CCCCN)C(=O)N[C@@H](CCCCN)C(=O)N[C@@H](CCC(=O)O)C(=O)O)[C@@H](C)O)C(C)C)C(C)C)[C@@H](C)O [Envelope 346-360] | 8.35 | 6.67 | 6.46 | 4.82 | 5.17 | 7.17 | 6.54 | 333 | 4.97 | 15 | 6.48 | 4.74 | 5.52 | – | – | –
CC[C@H](C)[C@H](NC(=O)[C@H](Cc1c[nH]c2ccccc12)NC(=O)[C@H](Cc1ccc(O)cc1)NC(=O)CNC(=O)[C@H](CCSC)NC(=O)[C@H](CC(=O)O)NC(=O)[C@H](C)NC(=O)[C@H](Cc1c[nH]cn1)NC(=O)[C@@H](NC(=O)[C@H](C)N)C(C)C)C(=O)N[C@@H](CCC(=O)O)C(=O)N[C@@H](CO)C(=O)N[C@@H](CCC(N)=O)C(=O)N[C@@H](CCCCN)C(=O)N[C@@H](CC(N)=O)C(=O)O [NS1 193-207] | 5.92 | 5.59 | 5.45 | 5.24 | 5.49 | 5.10 | 4.89 | 9890 | 4.86 | 33 | 5.20 | 7.62 | 6.74 | 4.98 | – | –
CC(C)C[C@H](NC(=O)[C@H](C)NC(=O)[C@H](CC(C)C)NC(=O)[C@@H]1CCCN1)C(=O)N[C@@H](CCCCN)C(=O)N[C@@H](CCC(=O)O)C(=O)N[C@@H](Cc1ccccc1)C(=O)N[C@@H](CCCCN)C(=O)N[C@@H](CC(=O)O)C(=O)N[C@@H](Cc1ccccc1)C(=O)N[C@@H](C)C(=O)N[C@@H](C)C(=O)NCC(=O)N[C@@H](CCCNC(=N)N)C(=O)N[C@@H](CCCCN)C(=O)O [NS3 605-619] | 5.36 | 5.35 | 5.33 | 5.65 | 5.26 | 5.46 | 7.43 | – | 5.05 | – | 7.55 | 5.47 | 5.87 | 7.70 | 9320 | 19600
CC[C@H](C)[C@H](NC(=O)[C@H](CC(N)=O)NC(=O)CNC(=O)[C@@H](NC(=O)CNC(=O)[C@H](CC(N)=O)NC(=O)[C@@H](N)CO)[C@@H](C)O)C(=O)N[C@H](C(=O)N[C@@H](CO)C(=O)N[C@@H](CO)C(=O)N[C@H](C(=O)N[C@@H](CC(N)=O)C(=O)N[C@@H](CCSC)C(=O)N[C@H](C(=O)N[C@@H](CO)C(=O)N[C@@H](CCCNC(=N)N)C(=O)N[C@@H](CC(C)C)C(=O)O)C(C)C)C(C)C)C(C)C [NS5 221-237] | 8.40 | 7.82 | 8.96 | 7.08 | 7.60 | 7.68 | 8.24 | – | 7.51 | – | 7.70 | 5.20 | 7.22 | – | 45 | 65
CSCC[C@H](NC(=O)[C@@H](NC(=O)[C@H](Cc1ccccc1)NC(=O)[C@H](CCCNC(=N)N)NC(=O)[C@H](CC(N)=O)NC(=O)[C@H](CC(C)C)NC(=O)[C@H](CC(C)C)NC(=O)[C@H](CC(C)C)NC(=O)[C@H](CCCNC(=N)N)NC(=O)[C@H](CO)NC(=O)[C@@H](NC(=O)[C@@H](N)CCSC)C(C)C)[C@@H](C)O)C(=O)N[C@H](C(=O)N[C@@H](Cc1c[nH]cn1)C(=O)N[C@@H](CCCNC(=N)N)C(=O)N[C@@H](CCCNC(=N)N)C(=O)O)[C@@H](C)O [NS5 233-248] | 6.97 | 6.49 | 7.24 | 5.97 | 6.16 | 7.01 | 6.80 | – | 7.80 | – | 6.51 | 5.65 | 6.21 | – | 569 | 34
C[C@@H](O)[C@H](NC(=O)[C@H](CO)NC(=O)[C@H](CO)NC(=O)[C@H](Cc1c[nH]cn1)NC(=O)[C@H](CCC(=O)O)NC(=O)[C@H](CCC(=O)O)NC(=O)[C@@H](N)CCCCN)C(=O)N[C@@H](Cc1c[nH]c2ccccc12)C(=O)N[C@@H](Cc1c[nH]cn1)C(=O)N[C@@H](Cc1ccc(O)cc1)C(=O)N[C@@H](CC(=O)O)C(=O)N[C@@H](CC(=O)O)C(=O)N[C@@H](CCC(=O)O)C(=O)N[C@@H](CC(N)=O)C(=O)N1CCC[C@H]1C(=O)N[C@@H](Cc1ccc(O)cc1)C(=O)N[C@@H](CCCCN)C(=O)O [NS5 284-300] | 5.68 | 8.03 | 6.51 | 4.74 | 5.06 | 5.60 | 5.81 | – | 5.85 | – | 5.23 | 7.77 | 4.85 | – | 8140 | 2030
CC(C)C[C@H](NC(=O)[C@H](C)NC(=O)[C@H](CCC(=O)O)NC(=O)[C@H](Cc1ccccc1)NC(=O)[C@H](CCC(=O)O)NC(=O)[C@H](CC(C)C)NC(=O)[C@H](Cc1ccc(O)cc1)NC(=O)[C@H](CCCNC(=N)N)NC(=O)[C@H](C)NC(=O)CNC(=O)[C@H](CC(C)C)NC(=O)[C@@H](N)Cc1c[nH]c2ccccc12)C(=O)NCC(=O)N[C@@H](Cc1ccccc1)C(=O)N[C@@H](CC(C)C)C(=O)N[C@@H](CC(N)=O)C(=O)N[C@@H](CCC(=O)O)C(=O)O [NS5 477-493] | 7.92 | 5.62 | 7.17 | 6.91 | 7.27 | 7.59 | 5.64 | – | 6.15 | – | 6.47 | 7.59 | 6.56 | – | 79 | 9750
CC[C@H](C)[C@H](NC(=O)[C@H](C)NC(=O)[C@H](CC(N)=O)NC(=O)[C@H](CO)NC(=O)[C@H](C)NC(=O)[C@H](CC(C)C)NC(=O)[C@H](CCCNC(=N)N)NC(=O)[C@H](CC(C)C)NC(=O)[C@H](CC(=O)O)NC(=O)[C@H](CCCNC(=N)N)NC(=O)[C@@H](N)CCCNC(=N)N)C(=O)N[C@@H](CS)C(=O)N[C@@H](CO)C(=O)N[C@@H](C)C(=O)N[C@H](C(=O)N1CCC[C@H]1C(=O)N[C@H](C(=O)O)C(C)C)C(C)C [NS5 769-785] | 7.55 | 6.39 | 8.44 | 7.03 | 7.80 | 6.92 | 7.55 | – | 7.10 | – | 7.68 | – | 6.67 | – | 61 | 4.5
EGKVVQYENLKYTVI [Envelope 126-140] | 6.01 | 6.16 | 5.86 | 5.22 | 7.05 | 5.64 | 7.43 | 3860 | 5.05 | 1480 | 7.68 | 5.69 | 7.23 | 5.61 | – | –
